Among the data in patent US11406645B2, “Acetamide thienotriazolodiazepines and uses thereof” (Dana-Farber Cancer Institute, Inc., priority 2015, dated 2022) are F and Tmax values, retold here.

The conditions of data set [1]: male, CD1, mouse, in vivo.
Experimental: (§1) Pharmacokinetic parameters were determined by administration of a candidate bromodomain inhibitor to male CD1 mice. Intravenous doses were delivered at 5 mg/kg, and oral doses at 10 mg/kg (N=3). […] The compound concentration in mouse blood was monitored over 24-hour time period to check the compound concentration in blood at 5 min, 30 min, 1 hour, 2 hours, 6 hours, 12 hours, and 24 hour via a series bleeding.
Data set [2] is described as follows: Pharmacokinetics in male CD1 mice, oral administration (whole blood). The note with it: oral 10 mg/kg, N=3, whole blood.
Experimental: as §1

The Tmax is the time from dosing to the highest level.

In data set [1], `Cc1sc2c(c1C)C(c1ccc(Cl)cc1)=N[C@@H](CC(=O)NCC1CCN(CCN(C)C)CC1)c1nnc(C)n1-2` [Compound 601] returned an F of 4%.
On the same count and under the same terms, as for `Cc1sc2c(c1C)C(c1ccc(Cl)cc1)=N[C@@H](CC(=O)NCCCN1CCC(N3CCCCC3)CC1)c1nnc(C)n1-2` [Compound 602], the figure is 2%; as for `Cc1sc2c(c1C)C(c1ccc(Cl)cc1)=N[C@@H](CC(=O)N1CCC(N3CCCCC3)CC1)c1nnc(C)n1-2` [Compound 603], 20%.
Still for that read-out and setting: as for `Cc1sc2c(c1C)C(c1ccc(Cl)cc1)=N[C@@H](CC(=O)NCCCN1CCCC1)c1nnc(C)n1-2` [Compound 604], the figure is 7%.
Still for that read-out and setting: next, `Cc1sc2c(c1C)C(c1ccc(Cl)cc1)=N[C@@H](CC(=O)N1CCn3c(nnc3C(F)(F)F)C1)c1nnc(C)n1-2` [Compound 605]: 6%.
As to `Cc1sc2c(c1C)C(c1ccc(Cl)cc1)=N[C@@H](CC(=O)OC(C)(C)C)c1nnc(C)n1-2` [JQ1], the Tmax in data set [2] was found to be 15 min.
